Tests used:
[1] = test system: tight junction proteins (ZO-1, Occludin, Claudin-5); assay: Real-time PCR, mRNA expression of tight junction proteins in brain microvessels of diabetic mice; type: in vivo
Protocol: Male laca mice weighing between 28-32 g were procured from the Central Animal House, Panjab University, Chandigarh. The animals were acclimatized and were fed with standard pellet diet and water ad libitum. The experimental protocols were approved by the Institutional Ethics Committee and were conducted according to Indian National Science Academy (INSA) guidelines for the use and care of experimental animals. The animals were divided into four groups: (i) Control animals received phosphate buffered saline (PBS) throughout the study; (ii) Control+GSNO animals were administered with GSNO 100 μg/kg body weight orally, dissolved in PBS after every 24 h for 8 weeks; (iii) Diabetic animals were injected with STZ at a dose of 40 mg/kg body weight intraperitoneally for 5 days dissolved in 0.1 mol/L citrate buffer, pH 4.5 and Diabetic+GSNO mice were administered GSNO 100 μg/kg body weight orally dissolved in PBS after every 24 h for 8 weeks after the induction of diabetes. Animals were assessed weekly for development of diabetic encephalopathy in terms of memory deficits. All experimental procedures were done on mice at the end of study.
The microvessels were isolated by the method described by Brooks et al., (2005). Brain tissue was homogenized in microisolation buffer (103 mM NaCl, 4.7 mM KCl, 2.5 mM CaCb, 1.2 mM KH2PO4, 1.2 mM MgSO4, 15 mM HEPES, 2.5 mM NaHCO3, 10 mM D-glucose, 1 mM sodium pyruvate and 10 g/L dextran (64,000 mol wt), pH 7.4) and equal amount of 26% (w/v) dextran was added. […]
PCR Total RNA was extracted from microvessels obtained from brain tissue using TriReagent®. […] The concentration of RNA obtained was determined by 260/280 nm ratio using a Nanodrop™ Spectrophotometer (Nanodrop™ 1000, Thermo Scientific®, Waltham, USA). The integrity and overall quality of RNA was evaluated using agarose gel electrophoresis. […] The data obtained was analyzed by the LightCycler 480 Software, Version 1.5. […] Glyceraldehyde-3-phosphate dehydrogenase was used as the reference gene and the relative gene expression was determined using delta-delta Ct method as described by Pfaffl et al., (2002).

CD4+ T cells = assay: Ex vivo culture of PLP139-151 immunized T cells from EAE mice, cytokine ELISA; type: in vivo, SJL mice
[2] = cortex and hippocampus, diabetic mice + GSNO 100 μg/kg oral 8 weeks, vs diabetic
[3] = T cells from GSNO (1.0 mg/kg daily from immunization) treated vs untreated EAE mice, TH0 condition
[4] = T cells from GSNO treated vs untreated EAE mice

In the case of `N[C@@H](CCC(=O)N[C@@H](CSN=O)C(=O)NCC(=O)O)C(=O)O` [GSNO, S-nitrosoglutathione], the “mRNA expression of claudin-5” value ([1]; GSNO treated diabetic animals) is reported as “no significant change”, the “mRNA expression of ZO-1” value [1, 2] is reported as 2 fold and the “mRNA expression of occludin” value [1, 2] is reported as 2 fold. For the same molecule, the “IFN-γ production of T cells in response to PLP139-151 stimulation” value (CD4+ T cells; [3]) was “comparable levels”, the “IL-17 production of T cells in response to PLP139-151 stimulation” value (CD4+ T cells; [3]) was “significantly lower levels” and the “GM-CSF production under TH1 and TH17 skewing conditions” value (CD4+ T cells; [4]) was “similarly increased levels”. The “IFN-γ production under TH1 skewing conditions” value (CD4+ T cells; [4]) was “comparable amounts”, the “IL-10 production under TH1 and TH17 skewing conditions” value (CD4+ T cells; [4]) was “significantly higher amounts” and the “IL-17 production under TH17 skewing conditions” value (CD4+ T cells; [4]) was “EAE group produced higher levels of IL-17 than T cells isolated from GSNO+ EAE group”.
